Structures can show the parent of a compound that is named as a salt.
System: rat model of AMI
Assay: Protective effect in rat model of AMI (coronary ligation, NBT staining, infarcted myocardium weight)
Format: in vivo
Conditions: for IMW / IMW/HW (%): SD male rats, 4 h after ligation

Row | Structure (SMILES) | reduction of IMW/HW (%) in comparison with solvent control group (900 mg/kg levocarnitine) [%] | IMW (LC 100 mg/kg i.p.) [mg] | IMW/HW (%) (LC 100 mg/kg i.p.) | IMW (LC 300 mg/kg i.p.) [mg] | IMW/HW (%) (LC 300 mg/kg i.p.) | IMW (LC 600 mg/kg i.p.) [mg] | IMW/HW (%) (LC 600 mg/kg i.p.) | IMW (LC 900 mg/kg i.p.) [mg] | IMW/HW (%) (LC 900 mg/kg i.p.) | reduction of IMW/HW (%) in comparison with solvent control group (9 mg/kg trimetazidine, control 24.5%) [%] | IMW (TMZ 1 mg/kg i.p.) [mg] | IMW/HW (%) (TMZ 1 mg/kg i.p.) | IMW (TMZ 3 mg/kg i.p.) [mg] | IMW/HW (%) (TMZ 3 mg/kg i.p.) | IMW (TMZ 6 mg/kg i.p.) [mg] | IMW/HW (%) (TMZ 6 mg/kg i.p.) | IMW (TMZ 9 mg/kg i.p.) [mg] | IMW/HW (%) (TMZ 9 mg/kg i.p., hydrochloride) | IMW/HW (%) (TMZ 9 mg/kg i.p., listed as trimetazidine, hydrochloride)
1 | C[N+](C)(C)C[C@H](O)CC(=O)[O-] [LC, Levocarnitine] | 22.9 | 139 ± 25.9 | 16.8 ± 3.33 | 141 ± 23.0 | 17.2 ± 3.04 | 139 ± 24.0 | 16.8 ± 3.10 | 129 ± 23.8 | 15.8 ± 3.10 |  |  |  |  |  |  |  |  |  | 
2 | COc1ccc(CN2CCNCC2)c(OC)c1OC [TMZ, trimetazidine hydrochloride] |  |  |  |  |  |  |  |  |  | 34.7 | 177 ± 20.2 | 22.8 ± 3.40 | 163 ± 20.2 | 21.0 ± 2.60 | 132 ± 19.1 | 17.0 ± 3.20 | 125 ± 15.2 | 16.0 ± 2.50 | 16.0
